According to patent publication US9931346B2, “Serotonin-norepinephrine reuptake inhibitors (SNRIs) and Sigma receptor ligands combinations” (LABORATORIOS DEL DR. ESTEVE S.A., priority 2013, dated 2018):
Structures can show the parent of a compound that is named as a salt.

System: mechanical allodynia of the post-operative pain model
Experiment: Mechanical allodynia (von Frey filaments) in the post-operative pain model (plantar incision) in rats
Type: in vivo
Protocol: The induction of anesthesia in rats was performed with 3% isofluran for veterinary use, employing an Ohmeda vaporizer and an anesthesia chamber. Anesthesia was kept during the surgical operation by a tube which directs the isofluran vapors to the animal's snout. Once the rats were anesthetized, they were laid down in a prone position and their right hind paws were cleaned out with alcohol.
Then, a skin incision in the hindpaw of about 10 mm was made by means of a scalpel, starting about 5 mm from the heel and extending toward the toes. Fascia was located and by means of curve scissors muscle was elevated and a longitudinal incision of about 5 mm was made, thus the muscle origin and insertion remained intact. The skin of the paw was stitched with a suturing stitch with breaded silk (3.0) and the wound was cleaned out with povidone.
The assessment was performed 30 minutes after the administration of product and always 4 hours after the plantar incision. The analysis was carried out evaluating the mechanical allodynia. It was tested using von Frey filaments: Animals were placed in methacrylate cylinders on an elevated surface, with metallic mesh floor perforated in order to apply the filaments. After an acclimation period of about 30 minutes within the cylinders, both hindpaws were stimulated (the injured and the non-injured paw, serving the latter as control), starting with the lowest force filament (0.4 g) and reaching a 15 g filament. The animal's response to pain was manifested by the withdrawal of the paw as a consequence of the painful stimulus caused by a filament.
(§1) The efficacy of the combined use of venlafaxine and compound 63.HCl was tested at different doses of compound 63.HCl (5, 10, 20, 40 and 80 mg/kg), while the venlafaxine dose remained constant (2.5 mg/kg). The administrations were performed 3.5 hours after surgery. The treated subjects were tested according to the mechanical allodynia protocol above (FIG. 1).
as §1, with “duloxetine” for “venlafaxine”, “(10,” for “(5, 10,”, “(0.625” for “(2.5”, “2).” for “1).”

Structure (SMILES): COc1ccc(C(CN(C)C)C2(O)CCCCC2)cc1 (stereo not shown) [Venlafaxine, venlafaxine]
- effect on mechanical allodynia (analgesia) (FIG. 1, Venlafaxine alone, sub-active dose 2.5 mg/kg): non-significant effect

Structure (SMILES): CNCC[C@H](Oc1cccc2ccccc12)c1cccs1 [Duloxetine, duloxetine]
- effect on mechanical allodynia (analgesia) (FIG. 2, Duloxetine alone, sub-active dose 0.625 mg/kg): non-significant effect

Structure (SMILES): Cc1cc(OCCN2CCOCC2)nn1-c1ccc2ccccc2c1 [compound 63.HCl, 4-{2-[5-Methyl-1-(naphthalen-2-yl)-1H-pyrazol-3-yloxy]ethyl}morpholine hydrochloride]
- maximum effect (analgesia, mechanical allodynia) (FIG. 1, compound 63.HCl alone, 5-80 mg/kg, assessed 30 min after administration, 4 h after plantar incision): 43%
- ED50 (Rattus norvegicus, FIG. 2, compound 63.HCl alone, 10-80 mg/kg, read-out: ED50 (analgesia, mechanical allodynia)): 40 mg/kg
